Reference: patent US10584124B2, “Crystalline forms” (Array BioPharma Inc., priority 2017, dated 2020)
Where two headings read alike, the source gives them in different places.

How the values were obtained:
[1] = Screen of conditions for sulfuric and phosphoric acid salts of Formula I (freebase solubility observations); assay type: physicochemical; settings: 25° C.
Description: The use of sulfuric acid in 4:1 DCM/EtOH provided a filterable solid after stirring overnight.

[2] = Solubility of the free base of the compound of Formula I in solvents and mixed solvent systems; assay type: physicochemical; settings: for solubility: thermodynamic from solid
Description: The solubility was also determined in mixed solvent systems such as DCM/EtOH, DMSO/EtOH, DMSO/water, THF/EtOH, and THF/water.
The solubility studies were conducted as follows. […] The samples were then heated to 60° C. Should the solids dissolve on heating, more freebase was added in 3 to 5 mg portions.

For COc1ccc(CN2CCN(c3ccc(-c4cc(-c5cnn(C)c5)cn5ncc(C#N)c45)cn3)CC2)cn1 [freebase of the compound of Formula I, 4-(6-(4-((6-methoxypyridin-3-yl)methyl)piperazin-1-yl)pyridin-3-yl)-6-(1-methyl-1H-pyrazol-4-yl)pyrazolo[1,5-a]pyridine-3-carbonitrile], the “Solubility (in words)” value ([1]; 4:1 DCM/EtOH (100 vol)) was “dissolve”, the “Solubility (in words)” value ([1]; THF, EtOH, and 1:1 DCM/EtOH (100 vol)) was “limited solubility” and the solubility ([2]; 0.1M HCl, 25 °C, simulated gastric fluid, read-out: Solubility at 25° C.) was 1500 µg/mL. It also gave a solubility ([2]; 10% THF in H2O, 25 °C, aqueous with cosolvent or surfactant or cyclodextrin, title: THF/H2O at room temperature, head: % THF in EtOH = 10, read-out: Solubility) of 150 µg/mL, a solubility ([2]; 20% THF in H2O, 25 °C, aqueous with cosolvent or surfactant or cyclodextrin, title: THF/H2O at room temperature, head: % THF in EtOH = 20, read-out: Solubility) of 130 µg/mL and a solubility ([2]; 25 °C, aqueous with cosolvent or surfactant or cyclodextrin, 20% DMSO in H2O, room temperature, read-out: Solubility) of 80 µg/mL. For the same compound, the solubility ([2]; 25 °C, aqueous with cosolvent or surfactant or cyclodextrin, 30% DMSO in H2O, room temperature, read-out: Solubility) was 90 µg/mL, the solubility ([2]; 25 °C, aqueous with cosolvent or surfactant or cyclodextrin, 40% DMSO in H2O, room temperature, read-out: Solubility) was 100 µg/mL and the solubility ([2]; 25 °C, aqueous with cosolvent or surfactant or cyclodextrin, 50% DMSO in H2O, room temperature, read-out: Solubility) was 90 µg/mL. For the same compound, the solubility ([2]; 25 °C, aqueous with cosolvent or surfactant or cyclodextrin, 60% DMSO in H2O, room temperature, read-out: Solubility) was 100 µg/mL, the solubility ([2]; 25 °C, aqueous with cosolvent or surfactant or cyclodextrin, 70% DMSO in H2O, room temperature, read-out: Solubility) was 150 µg/mL and the solubility ([2]; 25 °C, aqueous with cosolvent or surfactant or cyclodextrin, 80% DMSO in H2O, room temperature, read-out: Solubility) was 350 µg/mL. It also gave a solubility ([2]; 25 °C, aqueous with cosolvent or surfactant or cyclodextrin, 90% DMSO in H2O, room temperature, read-out: Solubility) of 1520 µg/mL, a solubility ([2]; 25 °C, organic solvent or mixture, 20% DCM in EtOH, room temperature, read-out: Solubility) of 260 µg/mL and a solubility ([2]; 25 °C, organic solvent or mixture, 20% DMSO in EtOH, room temperature, read-out: Solubility) of 180 µg/mL. The solubility ([2]; 25 °C, organic solvent or mixture, 20% THF in EtOH, room temperature, read-out: Solubility) was 340 µg/mL, the solubility ([2]; 25 °C, organic solvent or mixture, 30% DCM in EtOH, room temperature, read-out: Solubility) was 870 µg/mL and the solubility ([2]; 25 °C, organic solvent or mixture, 30% DMSO in EtOH, room temperature, read-out: Solubility) was 390 µg/mL. The solubility ([2]; 25 °C, organic solvent or mixture, 30% THF in EtOH, room temperature, read-out: Solubility) was 550 µg/mL, the solubility ([2]; 25 °C, organic solvent or mixture, 40% DCM in EtOH, room temperature, read-out: Solubility) was 2530 µg/mL and the solubility ([2]; 25 °C, organic solvent or mixture, 40% DMSO in EtOH, room temperature, read-out: Solubility) was 610 µg/mL. For the same compound, the solubility ([2]; 25 °C, organic solvent or mixture, 40% THF in EtOH, room temperature, read-out: Solubility) was 820 µg/mL, the solubility ([2]; 25 °C, organic solvent or mixture, 50% DCM in EtOH, room temperature, read-out: Solubility) was 7420 µg/mL and the solubility ([2]; 25 °C, organic solvent or mixture, 50% DMSO in EtOH, room temperature, read-out: Solubility) was 1140 µg/mL. For the same compound, the solubility ([2]; 25 °C, organic solvent or mixture, 50% THF in EtOH, room temperature, read-out: Solubility) was 1380 µg/mL, the solubility ([2]; 25 °C, organic solvent or mixture, 60% DCM in EtOH, room temperature, read-out: Solubility) was 16600 µg/mL and the solubility ([2]; 25 °C, organic solvent or mixture, 60% DMSO in EtOH, room temperature, read-out: Solubility) was 1800 µg/mL. For the same compound, the solubility ([2]; 25 °C, organic solvent or mixture, 60% THF in EtOH, room temperature, read-out: Solubility) was 1970 µg/mL, the solubility ([2]; 25 °C, organic solvent or mixture, 70% DCM in EtOH, room temperature, read-out: Solubility) was 22700 µg/mL and the solubility ([2]; 25 °C, organic solvent or mixture, 70% DMSO in EtOH, room temperature, read-out: Solubility) was 2570 µg/mL. For the same compound, the solubility ([2]; 25 °C, organic solvent or mixture, 70% THF in EtOH, room temperature, read-out: Solubility) was 2510 µg/mL, the solubility ([2]; 25 °C, organic solvent or mixture, 80% DCM in EtOH, room temperature, read-out: Solubility) was 29000 µg/mL and the solubility ([2]; 25 °C, organic solvent or mixture, 80% DMSO in EtOH, room temperature, read-out: Solubility) was 4280 µg/mL. The solubility ([2]; 25 °C, organic solvent or mixture, 80% THF in EtOH, room temperature, read-out: Solubility) was 3090 µg/mL, the solubility ([2]; 25 °C, organic solvent or mixture, 90% DCM in EtOH, room temperature, read-out: Solubility) was 34200 µg/mL and the solubility ([2]; 25 °C, organic solvent or mixture, 90% DMSO in EtOH, room temperature, read-out: Solubility) was 4440 µg/mL. For the same compound, the solubility ([2]; 25 °C, organic solvent or mixture, 90% THF in EtOH, room temperature, read-out: Solubility) was 3180 µg/mL, the solubility ([2]; 25 °C, organic solvent or mixture, 100% DMSO in EtOH, room temperature, read-out: Solubility) was 6960 µg/mL and the solubility ([2]; 30% THF in H2O, 25 °C, aqueous with cosolvent or surfactant or cyclodextrin, title: THF/H2O at room temperature, head: % THF in EtOH = 30, read-out: Solubility) was 350 µg/mL. The solubility ([2]; 40% THF in H2O, 25 °C, aqueous with cosolvent or surfactant or cyclodextrin, title: THF/H2O at room temperature, head: % THF in EtOH = 40, read-out: Solubility) was 1360 µg/mL, the solubility ([2]; 50% THF in H2O, 25 °C, aqueous with cosolvent or surfactant or cyclodextrin, title: THF/H2O at room temperature, head: % THF in EtOH = 50, read-out: Solubility) was 2500 µg/mL and the solubility ([2]; 60% THF in H2O, 25 °C, aqueous with cosolvent or surfactant or cyclodextrin, title: THF/H2O at room temperature, head: % THF in EtOH = 60, read-out: Solubility) was 3760 µg/mL. For the same compound, the solubility ([2]; 70% THF in H2O, 25 °C, aqueous with cosolvent or surfactant or cyclodextrin, title: THF/H2O at room temperature, head: % THF in EtOH = 70, read-out: Solubility) was 6170 µg/mL, the solubility ([2]; 80% THF in H2O, 25 °C, aqueous with cosolvent or surfactant or cyclodextrin, title: THF/H2O at room temperature, head: % THF in EtOH = 80, read-out: Solubility) was 6650 µg/mL and the solubility ([2]; 90% THF in H2O, 25 °C, aqueous with cosolvent or surfactant or cyclodextrin, title: THF/H2O at room temperature, head: % THF in EtOH = 90, read-out: Solubility) was 6560 µg/mL. For the same compound, the solubility ([2]; 100% DMSO (DMSO/H2O series), 25 °C, organic solvent or mixture, 100% DMSO in H2O, room temperature, read-out: Solubility) was 6960 µg/mL, the solubility ([2]; 100% THF (THF/EtOH series), 25 °C, organic solvent or mixture, 100% THF in EtOH, room temperature, read-out: Solubility) was 2590 µg/mL and the solubility ([2]; 100% THF (THF/H2O series), 25 °C, organic solvent or mixture, title: THF/H2O at room temperature, head: % THF in EtOH = 100, read-out: Solubility) was 2590 µg/mL. The “Solids dissolve at 60° C.?” value ([2]; ACN) was “No”, the solubility ([2]; ACN, 25 °C, organic solvent or mixture, read-out: Solubility at 25° C.) was 330 µg/mL and the solubility ([2]; DCE, 25 °C, organic solvent or mixture, read-out: Solubility at 25° C.) was 4600 µg/mL. The “Solids dissolve at 60° C.?” value ([2]; EtOAc) was “No”, the solubility ([2]; EtOAc, 25 °C, organic solvent or mixture, read-out: Solubility at 25° C.) was 360 µg/mL and the “Solids dissolve at 60° C.?” value ([2]; EtOH) was “No”. The solubility ([2]; EtOH, 25 °C, organic solvent or mixture, read-out: Solubility at 25° C.) was 40 µg/mL, the “Solids dissolve at 60° C.?” value ([2]; IPA) was “No” and the “Solids dissolve at 60° C.?” value ([2]; MEK) was “No”. For the same compound, the solubility ([2]; MEK, 25 °C, organic solvent or mixture, read-out: Solubility at 25° C.) was 690 µg/mL, the “Solids dissolve at 60° C.?” value ([2]; MeOH) was “No” and the solubility ([2]; MeOH, 25 °C, organic solvent or mixture, read-out: Solubility at 25° C.) was 70 µg/mL. The “Solids dissolve at 60° C.?” value ([2]; THF) was “Yes”, the “freebase dissolved in THF at 60° C.” value ([2]; THF (1 mL), 60° C., solution turned milky at 13 mg) was 10 to 13 mg and the “Solids dissolve at 60° C.?” value ([2]; acetone) was “No”. For the same compound, the solubility ([2]; acetone, 25 °C, organic solvent or mixture, read-out: Solubility at 25° C.) was 440 µg/mL, the solubility ([2]; aqueous with cosolvent or surfactant or cyclodextrin, 10% DMSO in H2O, room temperature, read-out: Solubility) was 90 µg/mL and the “Solids dissolve at 60° C.?” value ([2]; iPAc) was “No”. The solubility ([2]; iPAc, 25 °C, organic solvent or mixture, read-out: Solubility at 25° C.) was 250 µg/mL, the solubility ([2]; organic solvent or mixture, 0% DCM in EtOH, room temperature, read-out: Solubility) was 50 µg/mL and the solubility ([2]; organic solvent or mixture, 0% DMSO in EtOH, room temperature, read-out: Solubility) was 50 µg/mL. The solubility ([2]; organic solvent or mixture, 10% DCM in EtOH, room temperature, read-out: Solubility) was 60 µg/mL, the solubility ([2]; organic solvent or mixture, 10% DMSO in EtOH, room temperature, read-out: Solubility) was 90 µg/mL and the solubility ([2]; organic solvent or mixture, 10% THF in EtOH, room temperature, read-out: Solubility) was 290 µg/mL. It also gave a solubility ([2]; organic solvent or mixture, 100% DCM in EtOH, room temperature, read-out: Solubility) of 17300 µg/mL, a solubility ([2]; organic solvent or mixture, DMA, 60° C., read-out: Solubility at 60° C.) of over 40000 µg/mL and a solubility ([2]; organic solvent or mixture, THF, 60° C., read-out: Solubility at 60° C.) of 10200 to 13000 µg/mL. The “Solids dissolve at 60° C.?” value ([2]; toluene) was “No”, the solubility ([2]; toluene, 25 °C, organic solvent or mixture, read-out: Solubility at 25° C.) was 350 µg/mL and the solubility ([2]; water, 25 °C, water, read-out: Solubility at 25° C.) was 70 µg/mL.
